The assay has as its target Galectin-3 (Homo sapiens, UniProt P17931). In words: Biological Assay: ASSAY BUFFER Composition: 25 mM HEPES, 100 mM NaCl, 0.005% Tween 20, 0.05% BSA prepared in sterile water (all reagents from Sigma). PROTOCOL: The Gal-3 assays were performed in 384 white Opti plates in three replicates at room temperature with gentle shaking at 250-300 rpm From the original stocks, […] working stock concentrations of His-tagged recombinant human Gal-3 (hGal-3) and that of B-ASF were prepared. From the working stock, 20 μl of hGal-3 (15 nM) and 20 μl B-ASF (15 nM) were added to the plates. In Negative Control, only hGal-3 was added. A concentration range of 50× working stocks were prepared for the compounds in 100% DMSO. Aliquots of 1 uL of the compounds were added to the wells and pre-incubated with 20 μl hGal-3 per well for 30 minutes Then 20 μl B-ASF were added and incubated for another 1 hour. To detect the signal, 5 μ(final conc. of 1.0 nM) terbium labelled Anti-His antibody was added and incubated for 30 min followed by adding 5 μ(final conc. of 20 nM) Streptavidin d2 and incubation for another 1 hour. The assay signal was detected using HTRF screen protocol (Excitation wavelength=340 nm, emission wavelength=615 nm/665 nm) on Envision 2104 Multilabel Reader. Data analysed using Toolset and Curve Master. Results are reported in the experimental section (IC50 in μM).

Galectin-3, sequence (P17931 whole entry): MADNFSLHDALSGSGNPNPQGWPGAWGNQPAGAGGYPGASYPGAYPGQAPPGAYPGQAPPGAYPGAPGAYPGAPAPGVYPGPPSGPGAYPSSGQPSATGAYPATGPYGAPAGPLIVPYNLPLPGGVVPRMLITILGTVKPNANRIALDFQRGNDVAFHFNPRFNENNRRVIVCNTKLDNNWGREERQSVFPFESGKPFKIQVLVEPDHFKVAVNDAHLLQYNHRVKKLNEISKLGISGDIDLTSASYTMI

Consider `NC(=O)CO[C@@H]1[C@@H](n2cc(-c3cc(F)c(F)c(F)c3)nn2)[C@@H](O)[C@@H](CO)O[C@@H]1Sc1ccc(Cl)c(Cl)c1`, for which the IC50 (usually the concentration that inhibits the measured activity by half) turned out to be 200 nM. With `COCCO[C@@H]1[C@@H](n2cc(-c3cc(F)c(F)c(F)c3)nn2)[C@@H](O)[C@@H](CO)O[C@@H]1Sc1ccc(Cl)c(Cl)c1` the figure was 224 nM.

These data come from ChEMBL document CHEMBL5728593, “Small molecule inhibitors of Galectin-3” (2021).
